How the values were obtained:
[1] = system: HEK cells stably transfected to overexpress Nox4; assay: Cellular viability of HEK/Nox4 cells, CellTiter-Glo Assay; assay type: cell-based; details: 1 h, FIG. 2C
Procedure: Screening was performed to rule out false positives.
UANoxO48, DMSO (vehicle control), or catalase (known H2O2 scavenger positive control) was added to a cell-free assay containing exogenous H2O2(5 mM) and scavenger activity for H2O2 was assessed by (FIG. 2A) Amplex Red assay and (FIG. 2B) ROS-Glo assay (an HRP-free assay system to rule out assay interference). (FIG. 2C) HEK cells stably transfected to overexpress Nox4 were treated with UANox048, digitonin (an inducer of cell death), or DMSO (vehicle control) and incubated for 1 h. Cellular viability was evaluated by CellTiter-Glo Assay. Values represent means±SEM; n=4; P values were calculated by student's two-tailed t test. *p<0.05, **p<0.01, *** p<0.001.

Caco-2 cells = assay: Caco-2 permeability; assay type: in vitro ADME; details: 5 μM, 2 h
Procedure: (§1) In vitro absorption, distribution, metabolism, and excretion (ADME) were performed on selected analogs to assess their potential for continued pre-clinical development. UANox048 analog has favorable pharmacokinetic/pharmacodynamics properties, including a low molecular weight (384.4 g/mol), calculated log D value (4.07), and polar surface area (57.8 Å^2). The compounds were tested for cellular permeability and P-glycoprotein efflux susceptibility (P-gp efflux). […] P-gp efflux was calculated by comparing permeability through Caco-2 monolayers in both the apical-to-basolateral and basolateral-to-apical directions. Permeability for Caco-2 cells was determined by the lucifer yellow monolayer integrity test. Caco-2 cells were incubated with UANox048 (5 μM, 2 h) and flux of lucifer yellow across cell monolayers was determined by LC-MS/MS using electrospray ionization. Molecular weight, log D, and polar surface area calculations were performed with ChemDraw software.

P-glycoprotein = biological target: T1, P-glycoprotein (Homo sapiens, UniProt P08183); assay: P-glycoprotein efflux susceptibility in Caco-2 monolayers; assay type: in vitro ADME; details: apical-to-basolateral vs basolateral-to-apical
T1 construct: endogenous in cells; host or cells: Caco-2
Procedure: as §1

Nox4 = biological target: T2, Nox4 (Homo sapiens, UniProt Q9NPH5); assay: Inhibition of Nox4-dependent H2O2 production in HEK/Nox4 cells, Amplex Red assay; assay type: cell-based
T2 construct: expressed in transfected cells
T2 sequence (Q9NPH5 1-578): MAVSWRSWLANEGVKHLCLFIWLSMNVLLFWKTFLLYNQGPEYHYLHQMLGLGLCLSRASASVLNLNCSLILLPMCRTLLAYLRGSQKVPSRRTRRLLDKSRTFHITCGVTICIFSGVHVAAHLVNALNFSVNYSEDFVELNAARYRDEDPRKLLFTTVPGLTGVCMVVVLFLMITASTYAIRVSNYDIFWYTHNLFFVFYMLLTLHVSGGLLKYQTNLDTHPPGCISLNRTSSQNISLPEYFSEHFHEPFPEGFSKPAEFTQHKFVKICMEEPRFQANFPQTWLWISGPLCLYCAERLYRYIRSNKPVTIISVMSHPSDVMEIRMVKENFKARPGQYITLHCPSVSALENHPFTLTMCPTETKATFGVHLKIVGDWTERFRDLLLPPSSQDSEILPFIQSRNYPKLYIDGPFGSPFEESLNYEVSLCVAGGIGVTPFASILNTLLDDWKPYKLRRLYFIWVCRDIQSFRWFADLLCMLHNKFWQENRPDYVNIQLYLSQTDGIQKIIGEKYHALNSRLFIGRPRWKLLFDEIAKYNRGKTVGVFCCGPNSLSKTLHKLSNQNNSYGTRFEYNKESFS
T2 sequence (P13498 1-195 partner): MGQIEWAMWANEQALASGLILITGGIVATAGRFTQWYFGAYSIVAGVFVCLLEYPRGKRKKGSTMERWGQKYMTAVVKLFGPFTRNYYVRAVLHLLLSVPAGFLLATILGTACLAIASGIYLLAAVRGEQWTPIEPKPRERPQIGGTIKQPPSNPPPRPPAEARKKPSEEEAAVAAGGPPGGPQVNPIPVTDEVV
Procedure: A high-throughput screening (HTS) assay was established for Nox4 inhibition, utilizing HEK293 cells that stably over-express Nox4 (HEK/Nox4 cells), which generate high levels of H2O2(Cheng G et al, Gene: 2001, p. 131-140). Over 30,000 compounds have been screened and medicinal chemistry efforts have led to the synthesis of numerous analogs and the identification of a chemically distinct series of selective Nox4 inhibitors. […] IC-50 was evaluated for UANox048 (FIG. 1B).
HEK cells stably transfected to overexpress Nox4 were treated with varying concentrations of test compounds, DPI (all-Nox inhibitor positive control), or DMSO (vehicle control) and incubated for 1 h (FIG. 1). (FIG. 1A) H2O2 presence was evaluated by Amplex Red assay. […] Values represent means±SEM; n=4. P values were calculated by student's two-tailed t test. *p<0.05, **p<0.01, *** p<0.001.

[2] = Differential scanning calorimetry (DSC) thermal stability; assay type: physicochemical; details: solid state; room and body temperatures (32-37° C.)
Excerpt: Differential scanning calorimetry (DSC) was used, a highly sensitive thermos-analytical technique to quantify the thermotropic properties and phase transitions of drug candidates. […] X-ray powder diffraction (XRPD) is a non-destructive material science “gold standard” method for measuring the degree of long-range molecular order in the powder. This is critical for solid-state characterization, where drug candidates yield a unique pattern for any given crystalline phase; this provides a ‘molecular fingerprint’ for crystallinity identification. […] Attenuated Total Reflection Fourier Transform Infrared (ATR-FTIR) Spectroscopy is a non-destructive molecular identification tool based on the absorption of infrared light by vibrational transitions in covalent bonds. This provides a ‘molecular fingerprint’ for chemical identification. ATR-FTIR permits fine discrimination between like materials and/or batch-to-batch quality verification; it is used to identify active pharmaceutical ingredients (API). […] Scanning Electron Microscopy (SEM) with Energy Dispersive X-ray (EDX) is used to visualize the synthesized particles in their native solid-state and quantify important particle properties which directly influence formulation, including surface structure, particle morphology and size, and particle size range distribution. […]

T1 sequence (P08183 whole entry): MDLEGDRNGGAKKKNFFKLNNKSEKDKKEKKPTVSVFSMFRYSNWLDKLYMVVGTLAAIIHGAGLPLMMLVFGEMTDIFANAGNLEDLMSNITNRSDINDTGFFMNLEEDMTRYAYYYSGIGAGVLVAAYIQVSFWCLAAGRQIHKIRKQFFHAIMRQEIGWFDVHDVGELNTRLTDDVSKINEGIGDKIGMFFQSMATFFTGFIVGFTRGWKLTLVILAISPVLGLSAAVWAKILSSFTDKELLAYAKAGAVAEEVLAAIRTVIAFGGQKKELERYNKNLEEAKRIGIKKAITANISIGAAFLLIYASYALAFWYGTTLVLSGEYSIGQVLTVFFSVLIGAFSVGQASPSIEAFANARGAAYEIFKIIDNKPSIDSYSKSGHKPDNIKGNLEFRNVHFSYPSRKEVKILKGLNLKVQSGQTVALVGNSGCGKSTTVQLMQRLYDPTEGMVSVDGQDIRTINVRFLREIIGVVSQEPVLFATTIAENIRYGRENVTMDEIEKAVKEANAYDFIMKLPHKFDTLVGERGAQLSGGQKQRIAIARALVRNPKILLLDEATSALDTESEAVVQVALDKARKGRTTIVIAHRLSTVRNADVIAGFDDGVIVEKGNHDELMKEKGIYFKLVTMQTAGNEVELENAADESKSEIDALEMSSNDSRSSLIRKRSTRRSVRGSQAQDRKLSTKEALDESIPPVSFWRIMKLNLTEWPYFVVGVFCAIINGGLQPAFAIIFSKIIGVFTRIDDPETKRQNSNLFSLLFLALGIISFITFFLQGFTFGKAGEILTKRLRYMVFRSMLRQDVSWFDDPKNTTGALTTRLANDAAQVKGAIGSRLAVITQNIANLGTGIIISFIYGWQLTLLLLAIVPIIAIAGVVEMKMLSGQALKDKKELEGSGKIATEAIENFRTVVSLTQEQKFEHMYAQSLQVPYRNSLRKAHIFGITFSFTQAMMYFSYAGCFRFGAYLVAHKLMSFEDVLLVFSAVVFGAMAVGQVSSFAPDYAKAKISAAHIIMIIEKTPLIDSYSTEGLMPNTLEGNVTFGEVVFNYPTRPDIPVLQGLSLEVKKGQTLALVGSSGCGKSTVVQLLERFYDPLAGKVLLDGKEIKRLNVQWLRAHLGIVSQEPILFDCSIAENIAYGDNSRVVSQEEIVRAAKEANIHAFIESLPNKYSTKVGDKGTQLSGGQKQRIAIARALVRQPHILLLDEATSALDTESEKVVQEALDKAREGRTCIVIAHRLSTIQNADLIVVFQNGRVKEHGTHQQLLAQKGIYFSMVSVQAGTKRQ

SMILES: CC(CNS(=O)(=O)c1ccc(C(F)(F)F)cc1)N1CCc2ccccc21 (stereo not drawn) [UANOX048, N-(2-(indolin-1-yl)propyl)-4-(trifluoromethyl)benzenesulfonamide]
- cellular viability [1]: does not affect cellular viability
- Caco-2 permeability (Caco-2 cells): high
- P-gp efflux (P-glycoprotein): no P-gp efflux
- remaining activity at 1 µM (Nox4; 1 μM final concentration, 1 h, HEK/Nox4 cells, DMSO vehicle = 1.000, n = 3-10, read-out: H2O2 production relative to vehicle control, Mean): 89.3%
- remaining activity at 5 µM (Nox4; 5 μM final concentration, 1 h, HEK/Nox4 cells, DMSO vehicle = 1.000, n = 3-10, read-out: H2O2 production relative to vehicle control, Mean): 76.5%
- remaining activity at 10 µM (Nox4; 10 μM final concentration, 1 h, HEK/Nox4 cells, DMSO vehicle = 1.000, n = 3-10, read-out: H2O2 production relative to vehicle control, Mean): 69.3%
- IC50 (Nox4; HEK/Nox4 cells, 1 h, Amplex Red, FIG. 1B): 4.8 µM
- H2O2 generation by HEK/Nox4 cells (Nox4; varying concentrations, Amplex Red, FIG. 1A): dose-dependent decrease
- stability (DSC) [2]: highly stable
